# Measurements taken from patent publication US8008260B2, “Methods of protecting against apoptosis using lipopeptides” (Cleveland Clinic Foundation, priority 2005, dated 2011).
# Values joined by “and” are separate entries in the source; they are usually repeats but may differ in a detail not shown here. Equal entries are not always repeated. Peptide text beside a SMILES is read from it. * marks the point of attachment. Propyl(2R-PamO,3-PamO) = CCCCCCCCCCCCCCCC(=O)OC[C@H](C*)OC(=O)CCCCCCCCCCCCCCC
# Tested on: ICR mice
# Experiment: Radioprotection against total body gamma irradiation (TBI), 30-day survival
# Assay type: in vivo
# Conditions: for mice rescued (30-day survival): one experiment
# Source text: CBLB601, a R-Pam2-lipopeptide with the peptide moiety consisting of C-SKKKK (SEQ ID NO: 8), was selected for more detailed characterization as a radioprotector based upon its ability to activate NF-κB and preliminary in vivo data on radioprotection in NIH-SWISS mice (see Example 2). The objectives of this study were to determine the optimal dose, route of administration, and time of administration of CBLB601 to serve as a protector. ICR female mice of 10-15 weeks of age were used, with 10-15 animals per group or condition.
# The optimal intraperitoneal administration schedule of CBLB601 was determined by injecting the compound at different times prior to irradiation. […] Therefore, all of the optimization experiments were performed with 10 Gy of total body irradiation (TBI). A dose of 3 μg of BCLB601/mouse (1/10 NOAEL) was chosen as the starting dose. Thus, 3 μg of CBLB601 was injected i.p. into ICR mice at 0.5 h, 1 h, 6 h, and 24 h or 1 h, 24 h, 48 h, 72 h, 96 h prior to 10 Gy of TBI (as described in Example 1). […] Injection of CBLB601 24 hrs before irradiation clearly yielded the best radioprotection (90-100% 30-day survival). When the compound was administered 48 hrs before irradiation, the radioprotection was ˜30%. Administration of CBLB601 at 1 hr prior to irradiation produced inconsistent results ranging from 80% protection in one experiment (FIG. 5B) to almost no protection (20%) in another experiment (FIG. 5A).
# To determine the optimal radioprotective dose of CBLB601, the timing of injection and level of irradiation were kept constant, while the dose of CBLB601 was varied. ICR mice were injected i.p. with 1, 3, 10, 20, or 30 μg of CBLB601/mouse or 0.1, 0.3, 1, 3, 10, or […] 24 hrs prior to irradiation (10 Gy of TBI), and their survival was monitored for 30 days. The best protective dose was 3 μg/mouse, which supported a survival of 100% (FIGS. 6 A and B). […] Thus, the optimal protective dose of CBLB601 was determined to be 3 μg/mouse.
# To determine the level of radiation that was protected by CBLB601, radioprotectant-treated and control mice were exposed to increasing levels of TBI. Groups of ICR mice were injected i.p. with either 3 μg CBLB601/mouse or PBS, and then 24 h later they received 10, 11, 12, 13, 14, and 15 Gy doses of TBI. Survival was recorded over 30 days. […] All of the mice irradiated with 10-11 Gy of TBI died between days 12-14 post irradiation, which was typical for death due to hematopoietic failure. All of the mice that received 14-15 Gy of TBI died between days 7-9 post irradiation, which was typical for mortality due to radiation-induced intestinal damage. Mice that were irradiated with 12-13 Gy of TBI died at intermediate times, which was typical for a mixed etiology of radiation-induced mortality. […] To reach a statistically significant 10% difference between control and CBLB601-treated mice, experimental groups of at least 50 mice must be used. Although CBLB601 rescued 100% of mice from 10 Gy of TBI, its protection at 11 Gy of TBI was only 20%. […] This may be indicative of a combined toxicity of the drug and the irradiation.
# CBLB601 was administered intramuscularly to determine the optimal route of administration of this compound (especially since this would be the preferred route of administration for humans). […] In another experiment, increasing doses of CBLB601 administered i.m. were tested against 10, 11, and 12 Gy doses of […] (FIG. 9). […] A summary of the dose-dependency of the radioprotection of […] administered i.p. or i.m. 24 h prior to 10 Gy of TBI is shown in FIG. 10.
# The optimal schedule of intramuscular administration of CBLB601 was determined by varying the time between drug delivery and irradiation. ICR mice were injected i.m. with 3 μg of CBLB601/mouse 24 h, 6 h, 3 h, and 1 h prior to TBI and +1 h, +3 h after TBI (FIG. 12A), as well as 48 h, 36 h, 24 h, 12 h, and 6 h prior to TBI (FIG. 12B). […]
# [1] = 10 μg/mouse i.p. 24 hrs before 10 Gy TBI
smiles,measurement,setting,value
"CCCCCCCCCCCCCCCC(=O)OC[C@H](CSC[C@H](N)C(=O)N[C@@H](CO)C(=O)N[C@@H](CCCCN)C(=O)N[C@@H](CCCCN)C(=O)N[C@@H](CCCCN)C(=O)N[C@@H](CCCCN)C(=O)O)OC(=O)CCCCCCCCCCCCCCC [CBLB601, R-PAM2C-SKKKK] (H-C(Propyl(2R-PamO,3-PamO))SKKKK-OH)",mice rescued (30-day survival),1 μg/mouse i.p. 24 hrs before 10 Gy TBI,90%
same,protective effect,3 μg/mouse i.m. after (1 h and 3 h) 10 Gy TBI,no protective effect
same,optimal time for intramuscular delivery prior to TBI,"3 μg/mouse i.m., 10 Gy TBI",24 h
same,radioprotection (30-day survival),3 μg/mouse i.p. 0.5 h before 10 Gy TBI,10%
same,radioprotection (30-day survival),3 μg/mouse i.p. 6 h before 10 Gy TBI,20%
same,kinetics of death versus PBS controls,"3 μg/mouse i.p. 24 h before 11, 12 and 13 Gy",died with an accelerated kinetics
same,protection (30-day survival),3 μg/mouse i.p. 24 h before 11 Gy TBI,20%
same,protection from irradiation,3 μg/mouse i.p. 24 h before TBI higher than 11 Gy (12-15 Gy),no protection
same,30-day survival,3 μg/mouse i.p. 24 hrs before 10 Gy TBI,90-100% and 100%
same,radioprotection (30-day survival),3 μg/mouse i.p. 48 hrs before 10 Gy TBI,~30%
same,radioprotection,3 μg/mouse i.p. 72 h before 10 Gy TBI,No radioprotection
same,radioprotection,3 μg/mouse i.p. 96 h before 10 Gy TBI,No radioprotection
same,combined toxicity with irradiation,10 μg/mouse i.m. 24 hr before 10 Gy TBI,no sign of combined toxicity
same,combined toxicity with irradiation,[1],Some signs of this combined toxicity were detectable
same,mice rescued (30-day survival),[1],90%
same,mortality in combination with irradiation versus PBS,20 μg/mouse i.p. 24 hrs before 10 Gy TBI,accelerated mortality
same,mortality in combination with irradiation versus PBS,30 μg/mouse i.p. 24 hrs before 10 Gy TBI,accelerated mortality
same,radioprotection,"1, 3 or 10 μg/mouse i.m. 24 hr before 10 Gy TBI",imparted radioprotection
same,mortality shift at higher doses,"10, 30 μg i.m. prior to 10 Gy TBI",non-statistically significant shift to increased mortality
same,combined toxicity with irradiation,10 and 30 μg/mouse i.m. 1 h after 10 Gy TBI,increased levels of combined toxicity
same,therapeutic index (toxic dose/effective dose),i.m. administration,10-30
same,optimal dose,"i.m. and i.p., 24 h prior to 10 Gy TBI",3 μg/mouse
same,effective dose per body weight,"i.m. delivery, 24 h prior to 10 Gy TBI",0.06 to 0.115 mg/kg
same,radioprotective dose relative to NOAEL (fold lower),i.p.,10-30 fold
same,optimal protective dose,i.p. 24 hrs before 10 Gy TBI,3 μg/mouse
same,therapeutic index (toxic dose/effective dose),i.p. administration,3-10
same,effective dose per body weight,"i.p. delivery, 24 h prior to 10 Gy TBI",0.09 to 0.11 mg/kg
same,therapeutic index,summary of Example 5,3
